# Paper PMC10777851, “SMT-738: a novel small-molecule inhibitor of bacterial lipoprotein transport targeting Enterobacteriaceae” (Antimicrobial Agents and Chemotherapy, 2023)
# Assays:
# [1] = test system: E. coli BAA 2469 (NDM-1 positive); experiment: Murine bloodstream infection model; assay type: in vivo, male CD-1 mice; details: 60-min IV infusion, readout 9 h, below the limit of detection
# Method: Male JVC-cannulated CD-1 mice were infected intraperitoneally with E. coli BAA2469. At t = 1 h and t = 6 h, SMT-738 was intravenously infused over 60 min (BID). The mice from the pre-treatment group were euthanized at 1 h post-infection. All remaining mice were euthanized at 9 h post-infection, and blood samples were collected via cardiac puncture. Blood samples were serially diluted in PBS and plated onto cystine-lactose-electrolyte-deficient (CLED) agar. The viable bacterial burden for each sample was determined following overnight incubation at 37°C. A Kruskal-Wallis statistical test was performed.
# [2] = test system: Renal proximal tubule epithelial cells; experiment: Nephrotoxicity assay (cell health markers); assay type: cell-based; details: top concentration of 500 µM (= 196.85 µg/mL)
# Method: The standard nephrotoxicity assay was performed by Cyprotex, UK. Renal proximal tubule epithelial cells were exposed to a range of concentrations of compound, loaded with relevant dye/antibody for each cell health marker and scanned using a fluorescent cellular imager (ArrayScan, Thermo Scientific Cellomics). Cell health parameters that were analyzed: cell count, nuclear size, DNA structure, mitochondrial mass, mitochondrial membrane potential, phospholipidosis, glutathione content, and cellular ATP.
# E. coli UTI89 = experiment: Murine UTI infection model; assay type: in vivo, female C3H/HeN mice; details: urine and kidney, 20 mg/kg QD or BID, 60-min IV infusion over 3 days, readout 96 h; below the limit of detection
# Method: Female JVC (jugular venous catheter)-cannulated C3H/HeN mice were placed on drinking water which was supplemented with 5% glucose solution prior to infection. Mice were infected transurethrally with E. coli UTI89 following published methods. SMT-738 was intravenously infused over 60 min once (QD) or twice (BID, 4 h after the end of first infusion) per day for 3 days starting 24 h post-inoculation. The mice from pre-treatment group were euthanized (with an overdose of pentobarbitone) at 24 h, the remaining mice were euthanized at 96 h post-infection. The kidney, bladder, and urine were collected and quantitatively cultured by plating serial dilutions on appropriate media; CFU were counted after overnight incubation at 37°C. A Kruskal-Wallis statistical test was performed.
compound,measurement,setting,value
Cc1cnccc1-c1[nH]c(N)nc1-c1ccc2c(c1)N(C(=O)C(C)(C)N)CCO2 [SMT-738],efficacy in the blood,[1]; 10 mg/kg BID,almost as efficacious as the 20 mg/kg BID dose
same,reduction of bacterial burden compared to pre-treatment,"[1]; blood, 20 mg/kg BID",4 log10
same,nephrotoxicity,[2],No toxicity was observed
same,reduction of bacterial burden compared to pre-treatment,E. coli UTI89,5–6 log10
